In US8658604B2, “Template-fixed beta-hairpin peptidomimetics with protease inhibitory activity” (Polyphor Ltd, priority 2005, dated 2014):
Like-named read-outs stand apart in the source and are kept apart here. Where a SMILES comes first, the peptide text is derived from it.

Key:
[1] = system: Tryptase, from human lung; assay: Enzymatic assay, tryptase; settings: at 100 μM
[2] = molecular target: Chymotrypsin, from human pancreas (Homo sapiens, UniProt P17538); assay: Enzymatic assay, chymotrypsin; settings: at 100 μM
Sequence of Chymotrypsin, from human pancreas (P17538 19-263): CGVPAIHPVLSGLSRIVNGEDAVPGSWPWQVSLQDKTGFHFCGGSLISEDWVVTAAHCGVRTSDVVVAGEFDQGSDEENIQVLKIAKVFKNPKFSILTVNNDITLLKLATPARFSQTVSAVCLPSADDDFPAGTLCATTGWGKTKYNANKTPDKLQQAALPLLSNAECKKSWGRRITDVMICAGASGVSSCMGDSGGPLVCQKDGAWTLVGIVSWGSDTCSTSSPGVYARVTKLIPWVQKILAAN

[3] = molecular target: Trypsin, from human pancreas (Homo sapiens, UniProt P07477); assay: Enzymatic assay, trypsin; settings: at 100 μM
[4] = molecular target: T1, CathepsinG, from human neutrophils (Homo sapiens, UniProt P08311); assay: Enzymatic assay, cathepsin G
T1 sequence (P08311 21-244): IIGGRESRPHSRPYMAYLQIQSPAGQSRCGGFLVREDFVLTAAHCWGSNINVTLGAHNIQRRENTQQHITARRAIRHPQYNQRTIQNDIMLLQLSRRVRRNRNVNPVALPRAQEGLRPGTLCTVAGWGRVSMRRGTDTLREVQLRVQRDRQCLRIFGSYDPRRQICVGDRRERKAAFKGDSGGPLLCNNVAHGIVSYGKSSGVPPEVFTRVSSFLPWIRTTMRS

[5] = molecular target: Coagulation Factor Xa, from uman plasma (Homo sapiens, UniProt P00742); assay: Enzymatic assay, coagulation factor Xa
Sequence of Coagulation Factor Xa, from uman plasma (P00742 235-488 limits assumed): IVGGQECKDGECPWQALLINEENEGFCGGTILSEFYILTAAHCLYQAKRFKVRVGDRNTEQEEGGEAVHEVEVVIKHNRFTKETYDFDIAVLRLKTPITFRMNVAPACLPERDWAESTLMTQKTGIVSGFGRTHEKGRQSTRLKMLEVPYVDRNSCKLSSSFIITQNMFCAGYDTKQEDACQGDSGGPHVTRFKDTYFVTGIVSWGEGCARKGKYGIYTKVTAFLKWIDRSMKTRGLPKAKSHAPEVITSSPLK
Sequence of Coagulation Factor Xa, from uman plasma (P00742 41-179 limits assumed): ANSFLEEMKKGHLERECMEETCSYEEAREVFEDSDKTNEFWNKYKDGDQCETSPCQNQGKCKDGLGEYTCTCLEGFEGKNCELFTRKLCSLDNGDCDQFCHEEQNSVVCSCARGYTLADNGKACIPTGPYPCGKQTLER

[6] = molecular target: Urokinase from human urine (Homo sapiens, UniProt P00749); assay: Enzymatic assay, urokinase
[7] = molecular target: T2, Elastase from human neutrophils (Homo sapiens, UniProt P08246); assay: Enzymatic assay, elastase; settings: Elastase IC50
T2 sequence (P08246 30-267): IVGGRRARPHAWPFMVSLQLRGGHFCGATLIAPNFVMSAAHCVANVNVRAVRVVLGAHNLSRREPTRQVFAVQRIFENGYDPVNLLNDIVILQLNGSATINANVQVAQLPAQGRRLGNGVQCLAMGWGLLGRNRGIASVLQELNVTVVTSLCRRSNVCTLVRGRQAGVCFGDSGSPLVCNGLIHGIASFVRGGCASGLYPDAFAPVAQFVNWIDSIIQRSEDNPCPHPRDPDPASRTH

[8] = molecular target: Thrombin, from Human Plasma (Homo sapiens, UniProt P00734); assay: Enzymatic assay, thrombin
Chymase, from human skin = molecular target: T3, Chymase, from human skin (Homo sapiens, UniProt P23946); assay: Enzymatic assay, chymase
T3 sequence (P23946 22-247): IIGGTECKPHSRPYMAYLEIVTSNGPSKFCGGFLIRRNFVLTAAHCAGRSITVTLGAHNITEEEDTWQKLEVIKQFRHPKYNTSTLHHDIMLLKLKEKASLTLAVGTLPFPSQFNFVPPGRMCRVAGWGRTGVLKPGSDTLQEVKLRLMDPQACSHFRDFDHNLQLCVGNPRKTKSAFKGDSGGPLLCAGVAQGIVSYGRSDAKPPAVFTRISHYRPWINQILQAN

SMILES	Tryptase At 100 μM % [1] [%]	Chymotrypsin at 100 μM % [2] [%]	Trypsin at 100 μM % [3] [%]	Cathepsin G at 100 μM % [4] [at 100%]	FXa at 100 μM % [5] [%]	Urokinase at 100 μM % [6] [%]	IC50 [7] [nM]	Thrombin at 100 μM % [8] [%]	Chymase at 100 μM % (Chymase, from human skin) [%]	Tryptase at 100 μM % [1] [%]	IC50 ([4]; Cathepsin G IC50) [nM]	IC50 ([4]; read-out: Cathepsin G IC50) [nM]
CCCCCCCC[C@@H]1NC(=O)[C@@H]2CCCN2C(=O)[C@H]2CCCN2C(=O)[C@H](Cc2ccc(O)cc2)NC(=O)[C@H]([C@@H](C)O)NC(=O)[C@H](CCC(N)=O)NC(=O)[C@@H]2CCCN2C(=O)[C@@H]2CCCN2C(=O)[C@H]([C@@H](C)CC)NC(=O)[C@H](CO)NC(=O)[C@H](C)NC(=O)[C@H]([C@@H](C)O)NC(=O)[C@H](CCC(N)=O)NC1=O [Ex. 154] (HELM PEPTIDE1{[CCCCCCCC[C@H](N[*:1])C(=O)[*:2]].Q.T.A.S.I.P.P.Q.T.Y.[dP].P}$PEPTIDE1,PEPTIDE1,1:R1-13:R2$$$V2.0)	15	4	0	27	0	1	8.3	7	0			
CC[C@H](C)[C@@H]1NC(=O)[C@@H]2CCCN2C(=O)[C@@H]2CCCN2C(=O)[C@H](CC(=O)O)NC(=O)[C@H](CO)NC(=O)[C@H](CCCCN)NC(=O)[C@H]([C@@H](C)O)NC(=O)[C@@H]2CSSC[C@H](NC1=O)C(=O)N[C@@H](CC(N)=O)C(=O)N1CCC[C@@H]1C(=O)N1CCC[C@H]1C(=O)N[C@@H](Cc1ccc(N)cc1)C(=O)N2 [Ex. 31] (HELM PEPTIDE1{[Nc1ccc(C[C@H](N[*:1])C(=O)[*:2])cc1].C.T.K.S.D.P.P.I.C.N.[dP].P}$PEPTIDE1,PEPTIDE1,2:R3-10:R3|PEPTIDE1,PEPTIDE1,1:R1-13:R2$$$V2.0)		15	98		8	15	> 100000	10	12	76	34	
CC[C@H](C)[C@@H]1NC(=O)[C@@H]2CCCN2C(=O)[C@@H]2CCCN2C(=O)[C@H](CC(=O)O)NC(=O)[C@H](CO)NC(=O)[C@H](CCCCN)NC(=O)[C@H]([C@@H](C)O)NC(=O)[C@@H]2CSSC[C@H](NC1=O)C(=O)N[C@@H](CC(=O)O)C(=O)N1CCC[C@@H]1C(=O)N1CCC[C@H]1C(=O)N[C@@H](Cc1ccccc1)C(=O)N2 [Ex. 2] (HELM PEPTIDE1{F.C.T.K.S.D.P.P.I.C.D.[dP].P}$PEPTIDE1,PEPTIDE1,2:R3-10:R3|PEPTIDE1,PEPTIDE1,1:R1-13:R2$$$V2.0)		2.9	92		5.3	0.9	> 100000	9.2	0	39.6	84	
CC[C@H](C)[C@@H]1NC(=O)[C@H](CO)NC(=O)[C@H](C)NC(=O)[C@H]([C@@H](C)O)NC(=O)[C@@H]2CSSC[C@H](NC(=O)[C@H](CCC(N)=O)NC(=O)[C@@H]3CCCN3C(=O)[C@@H]3CCCN3C1=O)C(=O)N[C@@H](CCC(N)=O)C(=O)N1CCC[C@@H]1C(=O)N1CCC[C@H]1C(=O)N[C@@H](CCc1ccccc1)C(=O)N2 [Ex. 143] (HELM PEPTIDE1{[O=C([C@H](CCc1ccccc1)N[*:1])[*:2]].C.T.A.S.I.P.P.Q.C.Q.[dP].P}$PEPTIDE1,PEPTIDE1,2:R3-10:R3|PEPTIDE1,PEPTIDE1,1:R1-13:R2$$$V2.0)	18	91	12	28	0	8	15	12	0			
CC[C@H](C)[C@@H]1NC(=O)[C@@H]2CCCN2C(=O)[C@@H]2CCCN2C(=O)[C@H](CC(=O)O)NC(=O)[C@H](CO)NC(=O)[C@H](CCCCN)NC(=O)[C@H]([C@@H](C)O)NC(=O)[C@@H]2CSSC[C@H](NC1=O)C(=O)N[C@@H](CO)C(=O)N[C@H](C)C(=O)N[C@@H](CC(=O)O)C(=O)N[C@@H](Cc1ccccc1)C(=O)N2 [Ex. 68] (HELM PEPTIDE1{F.C.T.K.S.D.P.P.I.C.S.[dA].D}$PEPTIDE1,PEPTIDE1,2:R3-10:R3|PEPTIDE1,PEPTIDE1,1:R1-13:R2$$$V2.0)		4.3	84.2		8.6	4.6	> 100000	5.4	0	21.3	59	
CCCCCCCC[C@@H]1NC(=O)[C@H](CO)NC(=O)[C@H](C)NC(=O)[C@H]([C@@H](C)O)NC(=O)[C@@H]2CSSC[C@H](NC(=O)[C@H](CCC(N)=O)NC(=O)[C@@H]3CCCN3C(=O)[C@@H]3CCCN3C1=O)C(=O)N[C@@H](Cc1ccc(O)cc1)C(=O)N1CCC[C@@H]1C(=O)N[C@@H](CCC(N)=O)C(=O)N[C@@H](CCCC)C(=O)N2 [compound 169] (HELM PEPTIDE1{[Nle].C.T.A.S.[CCCCCCCC[C@H](N[*:1])C(=O)[*:2]].P.P.Q.C.Y.[dP].Q}$PEPTIDE1,PEPTIDE1,2:R3-10:R3|PEPTIDE1,PEPTIDE1,1:R1-13:R2$$$V2.0)	4.2	79.6	10.8		13.3	10.4	18	20.6	0		20300	
CCCC[C@@H]1NC(=O)[C@@H]2CCCN2C(=O)[C@H]2CCCN2C(=O)[C@H](Cc2ccccc2Cl)NC(=O)[C@@H]2CSSC[C@H](NC1=O)C(=O)N[C@@H]([C@@H](C)O)C(=O)N[C@@H](C)C(=O)N[C@@H](CO)C(=O)N[C@@H]([C@@H](C)CC)C(=O)N1CCC[C@H]1C(=O)N1CCC[C@H]1C(=O)N[C@@H](CCC(N)=O)C(=O)N2 [Ex. 144] (HELM PEPTIDE1{[Nle].C.T.A.S.I.P.P.Q.C.[O=C([C@H](Cc1ccccc1Cl)N[*:1])[*:2]].[dP].P}$PEPTIDE1,PEPTIDE1,2:R3-10:R3|PEPTIDE1,PEPTIDE1,1:R1-13:R2$$$V2.0)	0	80.6	7.5		0	6.2	7.5	3.6	0			21200
CCCCCCCC[C@@H]1NC(=O)[C@H](CO)NC(=O)[C@H](C)NC(=O)[C@H]([C@@H](C)O)NC(=O)[C@@H]2CSSC[C@H](NC(=O)[C@H](CCC(N)=O)NC(=O)[C@@H]3CCCN3C(=O)[C@@H]3CCCN3C1=O)C(=O)N[C@@H](CCC(N)=O)C(=O)N1CCC[C@@H]1C(=O)N1CCC[C@H]1C(=O)N[C@@H](CCc1ccccc1)C(=O)N2 [Ex. 153] (HELM PEPTIDE1{[O=C([C@H](CCc1ccccc1)N[*:1])[*:2]].C.T.A.S.[CCCCCCCC[C@H](N[*:1])C(=O)[*:2]].P.P.Q.C.Q.[dP].P}$PEPTIDE1,PEPTIDE1,2:R3-10:R3|PEPTIDE1,PEPTIDE1,1:R1-13:R2$$$V2.0)	9	84	8	56	11	16	8.5	16	0			
